Source: patent US12390477B2, “Ganaxolone for use in treating tuberous sclerosis complex and seizure disorders” (Immedica Pharma US Inc., priority 2021, dated 2025)

How the values were obtained:
CYP2C19 = CYP2C19 (Homo sapiens, UniProt P33261); details: cited from earlier work
CYP3A4/5 = details: cited from earlier work
[1] = Phase 2 open-label TSC trial (Part A): ganaxolone plasma/serum concentration; format: in vivo, human
Experimental: (§1) Pharmacokinetics, Safety and tolerability were assessed.

[2] = tested on: major motor seizures in CDD; assay: Marigold phase 3 trial of ganaxolone in CDKL5 deficiency disorder: seizure frequency; format: in vivo, human
Description: (§2) The Marigold Study was a phase 3 clinical trial of ganaxolone for the treatment of CDD. The trial met primary endpoint-median 28-day major motor seizure frequency reduction of 32.2 percent compared to 4.9 percent for placebo. […] The most frequent adverse event was somnolence.
(See, FIG. 10.) These effects are unlikely secondary to age or weight, which were balanced between the two groups.

TSC-associated seizures = assay: Phase 2 open-label trial of adjunctive ganaxolone in TSC-related epilepsy (Part A): seizure frequency; format: in vivo, human
Experimental: A Phase 2 open-label 12 week trial of adjunctive ganavolone treatment (Part A) in tuberous sclerosis complex-related epilepsy followed by long-term treatment (Part B) was conducted. This was a multicenter study conducted at 7 sites in the United States.
The primary objectives were to assess preliminary safety and efficacy of ganavolone (GNX) as adjunctive therapy for the treatment of primary seizure types in patients with genetically- or clinically-confirmed TSC-related epilepsy through the end of the 12 week treatment period. The primary seizure types (focal motor seizures without impairment of consciousness or awareness, focal seizures with impairment of consciousness or awareness, focal seizures evolving to bilateral, tonic-clonic convulsive seizures, and generalized motor seizures including tonic-clonic, bilateral tonic, bilateral clonic, or atonic/drop seizures) are identified to be the most common, easily identifiable/countable by a parent/caregiver/legally authorized representative (LAR), and most consequential to the patient's quality of life.
(§3) This was an open label (OL) proof of concept study of adjunctive GNX treatment in patients with a confirmed clinical diagnosis of TSC and/or a mutation in either the TSC1 or TSC2 gene. The trial consisted of two parts: Part A consisted of a 4-week baseline period followed by a 12-week treatment period (4-week titration and 8-week maintenance). For patients not continuing in the OLE period (Part B), a 2-week taper period followed by a 2-week safety period followed. The main difference between Part A and Part B is the length of treatment, less frequent assessments, and the ability to alter drug doses (both GNX and other antiepileptic drug [AED] treatments which includes initiating and stopping other medications) based on investigator evaluation of the patient's clinical course during Part B. Patients with a seizure frequency reduction rate of ≥35% during the 12-week treatment period in Part A compared to baseline were eligible to continue into Part B (“OLE eligible”).
(§4) After meeting all eligibility criteria, approximately 30 patients aged 2 to 65 years (inclusive) with TSC-related epilepsy were enrolled to receive GNX for a total of 12 weeks (4 week titration, 8 week maintenance) in addition to their standard anti-seizure medication(s) (ASMs). Patients were titrated to 63 mg/kg/day (maximum 1800 mg/day) over 4 weeks, and then maintained at that dose for another 8 weeks. Patients who were not able to tolerate 63 mg/kg/day (or maximum 1800 mg/day) were eligible to be maintained on a lower dose after discussion with the medical monitor. A minimum dose of 33 mg/kg/day or 900 mg/day was generally required during the maintenance period.
Patients were required to complete a daily diary to determine GNX's effect on seizures. Days without seizures should also have been noted. Additional clinician and caregiver administered instruments were used to assess the efficacy of GNX in TSC and included: Caregiver Global Impression of Change (CGI-C)—Target Behavior and Clinical Global Impression—Improvement (CGI-I) caregiver and CGI-I clinician.
Ganaxolone was administered in increments of 15 mg/kg/day up to 63 mg/kg/day (maximum 1800 mg/day) given as an oral suspension with food. Patients weighing ≤28 kg were dosed on an mg/kg basis. Patients weighing >28 kg were dosed on a fixed regimen in increments of 450 mg/day up to 1800 mg/day.
Seizures: All seizure types and number of seizures were to be recorded daily in a diary. Days in which no seizures occur were also to be noted.
Primary Efficacy Endpoint: The primary efficacy endpoint was the percent change in 28-day primary seizure frequency through the end of the 12-week treatment period (4-week titration and 8-week maintenance) relative to the 4-week baseline. […]

[3] = Marigold phase 3 trial of ganaxolone in CDD: safety and tolerability; format: in vivo, human; details: CDD patients
Description: as §2

[4] = Phase 2 open-label TSC trial (Part A): safety and tolerability, adverse events; format: in vivo, human
Description: as §3, §4, §1
If the next dose was still not tolerated, the patient could drop back to the next lower dose step. A minimum dose of 33 mg/kg/day or 900 mg/day was generally required following the escalation period, during the maintenance period.

[5] = Human pharmacokinetic studies of ganaxolone and CBD; format: in vivo
Description: Without wishing to be bound by any particular theory, the inventors believe that the results of the clinical study can be explained by a previously unknown and unexpected drug interaction between ganaxolone and CBD. This is unexpected because ganaxolone is metabolized by CYP3A4/5. Landmark et al. Epilepsia 2021 62:857-873. […] Accordingly, it was unexpected that ganaxolone plasma concentrations, tolerability and efficacy would be affected by concomitant CBD. […] Thus, without wishing to be bound by any particular theory or mechanism, the unexpected drug-drug interaction could be a pharmacodynamic interaction.

[6] = tested on: UGT1A9, UGT2B7, CYP1A2, CYP2B6, CYP2C8, CYP2C9 or CYP2C19; details: cited from earlier work

CYP2C19, sequence (P33261 whole entry): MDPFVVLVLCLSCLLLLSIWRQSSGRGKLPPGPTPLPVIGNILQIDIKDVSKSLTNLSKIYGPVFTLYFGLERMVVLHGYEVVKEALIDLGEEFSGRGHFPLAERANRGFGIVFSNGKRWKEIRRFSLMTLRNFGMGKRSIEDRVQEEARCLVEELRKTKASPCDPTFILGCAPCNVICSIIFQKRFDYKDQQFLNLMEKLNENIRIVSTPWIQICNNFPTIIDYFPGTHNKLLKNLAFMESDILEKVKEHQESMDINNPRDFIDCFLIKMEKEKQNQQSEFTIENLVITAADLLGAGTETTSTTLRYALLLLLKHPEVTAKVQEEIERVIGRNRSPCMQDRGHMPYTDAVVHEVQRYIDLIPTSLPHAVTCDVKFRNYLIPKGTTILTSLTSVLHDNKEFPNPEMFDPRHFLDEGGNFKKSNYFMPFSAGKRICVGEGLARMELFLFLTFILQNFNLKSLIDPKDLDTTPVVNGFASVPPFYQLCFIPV

C=C(C)[C@@H]1CCC(C)=C[C@H]1c1c(O)cc(CCCCC)cc1O [EPIDIOLEX, cannabidiol]
increase in plasma concentration of N-desmethylclobazam (CYP2C19; coadministration with clobazam (a CYP2C19 substrate)): 3 fold
effect on clobazam levels (CYP2C19; coadministration with clobazam): no effect

CC(=O)[C@H]1CC[C@H]2[C@@H]3CC[C@H]4C[C@](C)(O)CC[C@]4(C)[C@H]3CC[C@]12C [ganaxolone, 3α-hydroxy-3β-methyl-5α-pregnan-20-one]
metabolizing enzyme (CYP3A4/5): CYP3A4/5
mean ganaxolone serum concentration in patients with somnolence-related adverse events relative to patients without ([1]; FIG. 3): higher
mean ganaxolone plasma concentration with concomitant cannabidiol vs without ([1]; FIG. 4): higher
ganaxolone plasma concentration in relation to concomitant cannabidiol dose ([1]; FIG. 5, n=11): higher doses of cannabidiol were associated with higher plasma concentrations of ganaxolone
median 28-day major motor seizure frequency reduction ([2]; CDD patients, ganaxolone arm): 32.2%
efficacy in patients who experienced somnolence-related adverse events vs those who did not ([2]; ganaxolone treatment group (N=49), FIG. 10): reduced efficacy
median reduction in TSC-associated seizure frequency (TSC-associated seizures; 23 enrolled patients, 12-week treatment vs 4-week baseline): 16.6%
patients achieving ≥50% reduction in TSC-associated seizure frequency (TSC-associated seizures; all enrolled patients (n=23)): 30.4%
efficacy in patients receiving concomitant EPIDIOLEX (CBD) at 10 mg/kg/day or less (TSC-associated seizures; concomitant CBD 10 mg/kg/day or less): robust efficacy
suppression of seizure (efficacy) with concomitant CBD above 10 mg/kg vs no CBD or CBD at or below 10 mg/kg (TSC-associated seizures; concomitant CBD above 10 mg/kg): lower suppression of seizure
fraction of patients with robust reduction in TSC-associated seizures (TSC-associated seizures; including those on concomitant cannabidiol and everolimus): ⅓
median percent reduction in focal seizure frequencies (TSC-associated seizures; n=19): 25.2%
patients achieving ≥50% reduction in TSC-associated seizure frequency (TSC-associated seizures; patients that received concomitant cannabidiol (n=12)): 25%
patients achieving ≥50% reduction in TSC-associated seizure frequency (TSC-associated seizures; patients that received concomitant everolimus (n=11)): 36.4%
median percent reduction in TSC-associated seizures, no concomitant cannabidiol vs concomitant cannabidiol (TSC-associated seizures; patients without concomitant cannabidiol (n=11) compared with patients on cannabidiol): greater median percent reduction
discontinuation rate in the active treatment arm [3]: less than 5%
most frequent adverse event [3]: somnolence
overall tolerability [3]: generally well tolerated
patients that discontinued Part A, number ([4]; 23 enrolled): 6 patients
patients that discontinued Part A, percent ([4]; 23 enrolled): 26.1%
fatigue, number of patients reporting ([4]; 23 enrolled TSC patients): 3 patients
fatigue, percent of patients reporting ([4]; 23 enrolled TSC patients): 13.0%
overall tolerability ([4]; 23 enrolled TSC patients): generally well-tolerated
patients with seizure assessed by the principal investigator as treatment related ([4]; 23 enrolled TSC patients): One
sedation, number of patients reporting ([4]; 23 enrolled TSC patients): 3 patients
sedation, percent of patients reporting ([4]; 23 enrolled TSC patients): 13.0%
somnolence, number of patients reporting ([4]; 23 enrolled TSC patients): 10 patients
somnolence, percent of patients reporting ([4]; 23 enrolled TSC patients): 43.5%
somnolence-related adverse events (somnolence, sedation, fatigue and lethargy), number of patients ([4]; 23 enrolled TSC patients): 17 patients
ganaxolone tolerability issues with concomitant CBD above 10 mg/kg vs no CBD or CBD at or below 10 mg/kg ([4]; concomitant CBD above 10 mg/kg): greater ganaxolone tolerability issues
patients on concomitant cannabidiol experiencing somnolence-related adverse events ([4]; concomitant cannabidiol (n=12)): All patients
patients that discontinued Part A because of an adverse event ([4]; of the patients that discontinued): 4
pharmacokinetic drug-drug interaction of ganaxolone and CBD [5]: did not provide evidence of a pharmacokinetic drug-drug interaction
metabolism by enzymes implicated in CBD interactions with other drugs [6]: not significantly metabolized
